IC50 data for 9 compounds are collected here from US20260159525A1, “TRICYCLIC HETEROCYCLES” (Merck Patent GmbH, priority 2021, published 2026).

Common to all, as to assay type: cell-based
One assay has as its system YAP-TEAD interaction. As to the kind of experiment: SK-HEP-1 reporter assay (8x TEAD responsive elements driving NanoLuc luciferase). The following applies: Homo sapiens, SK-HEP1, SK-HEP-1 cells, 24 hour incubation. The gist of the method: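 SK-HEP-1 cells carrying a stably integrated 8× TEAD-element NanoLuc reporter, seeded 24 h before dosing, were treated in duplicate with a 10-point dose series (top 30 μM final, 0.3% DMSO) for 24 h at 37°C, 5% CO2. Luciferase activity read by NanoGlo luminescence; IC50 derived from it.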
A general note: A reporter such as luciferase makes a cellular process visible.

For a further assay, the system named is NCI-H226 cells. As to the kind of experiment: Viability assay in NCI-H226 (Yap-dependent) cells, CyQUANT. The following applies: Homo sapiens, NCI-H226 YAP dependent cell line, 96 hour incubation, group symbols. As for the experimental part:
(§1) Viability Assay in NCI-H226 (Yap-Dependent) and SW620 Yap KO (Yap Independent) Cells
(§2) The ability of YAP-TEAD inhibitors to inhibit tumor cell growth was evaluated using two different cell lines: NCI-H226, which is a YAP dependent cell line, and SW620 cells, where YAP and TAZ were knocked out using CRISPR to generate a YAP independent cell line.
(§3) For the assay, cells were treated in duplicates with the test compounds in a 10-point dose, 1:3 dilution steps, with the top concentration starting at 30 μM (final concentration in assay). After a 96 hour incubation at 37° C., 95% rH, and 5% CO2, a cell-permeant DNA-binding dye that stains only healthy cells (CyQUANT®, Promega) was added to the cells, allowing the quantification of cell viability.
(§4) Cell Media: The NCI-H226 cells were cultured in the following media: RPMI 1640, +10% FBS, +1× GlutaMAX, +10 mM HEPES, +0.5% Pen/Strep. The SW620-KO cells were cultured in the following media: DMEM/F-12, +10% FBS, +1× GlutaMAX, +10 mM HEPES, +0.5% Pen/Strep.
(§5) Reagents: The reagents used are listed below:
(§6) Cell culture: The cells were examined using an inverted microscope to check for health, cell density, etc. To dissociate adherent cells, the monolayer of cells was washed once with pre-warmed PBS. After removing the PBS, 3 ml pre-warmed Accutase was added to a F75 flask, dispersed evenly and the flask was allowed to sit in incubator for ˜4-5 minutes.
(§7) When a single cell suspension was obtained, 7 ml of prewarmed growth media was added and resuspended with the cells. The cell suspension was transferred to a sterile 15 ml conical centrifuge tube, and spun for 5 min at 300×g, RT. The supernatant was discarded and the pellet was resuspended in 10 ml of pre-warmed growth media.
(§8) The total cell count was determined, and 20 μl of the desired cell number was added to each well of a 384 well plate using a Multidrop Combi. The plates were then incubated for 24 hours at 37° C., 95% rH, and 5% CO2.
(§9) Compound treatment: 24 hours after seeding, the cells were treated with compounds.
(§10) A 1:333 dilution of compounds, diluted in DMSO, was made to get a final concentration of 0.3% DMSO per well. To transfer the compounds to the assay plate, 120 nl was shot from Labcyte low dead volume plates to the cell plates containing 20 μl media/well with the ECHO 555 liquid handling system. After treatment, the cells were fed with 20 μl fresh pre-warmed assay media using a Multidrop combi.
(§11) The assay plates were then incubated for 96 h at 37° C., 95% rH, and 5% CO2.
(§12) 96 h after treatment 30 μl of CyQuant® reagent was added to the assay plates using a Multidrop combi in the dark. The plates were then incubated for 1 hour at 37° C., 95% rH and 5% CO2. Thereafter, the assay plates were removed from the incubator and allowed to equilibrate to RT for 30 min in the dark without lid. Finally, they were measured using an EnVision microplate reader with a FITC bottom read program.

The next assay has as its system SW620 Yap KO cells. Put plainly: Viability assay in SW620 Yap KO (Yap independent) cells, CyQUANT. The note with it: Homo sapiens, SW-620, SW620 YAP and TAZ knocked out (YAP independent), 96 hour incubation. As for the experimental part:
as §1, §2, §3, §4, §5, §6, §7, §8, §9, §10, §11, §12

Setting [1] is: number, or n.d. (x) = not detectable below threshold x.
Where [2] appears, read: n.d. (x) = not detectable below threshold x.

For `C[C@@H](O)CNC(=O)c1cc2c3cn(C)nc3n(-c3ccc(C(F)(F)F)cc3)c2s1` [Compound 44, N-[(2R)-2-hydroxypropyl]-4-methyl-7-[4-(trifluoromethyl)phenyl]-9-thia-4,5,7-triazatricyclo[6.3.0.0^2,6]undeca-1(8),2,5,10-tetraene-10-carboxamide], the IC50 (usually the concentration needed to halve the response being measured) in the assay with YAP-TEAD interaction (setting [1]) is over 9500 nM; with NCI-H226 cells it was 1 to 100 nM; in the assay on SW620 Yap KO cells (setting [2]), over 3 µM.
On to `Cn1cc2c3cc(C(=O)NCc4cccnc4)sc3n(-c3ccc(C(F)(F)F)cc3)c2n1` [Compound 45, 4-methyl-N-[(pyridin-3-yl)methyl]-7-[4-(trifluoromethyl)phenyl]-9-thia-4,5,7-triazatricyclo[6.3.0.0^2,6]undeca-1(8),2,5,10-tetraene-10-carboxamide], for which the IC50 was over 9500 nM with YAP-TEAD interaction (setting [1]), 1 to 100 nM in the assay on NCI-H226 cells and 1 to 10 µM in the assay on SW620 Yap KO cells (group symbols).
Regarding `CCNC(=O)c1cc2c3cn(C)nc3n(-c3ccc(C(F)(F)F)cc3)c2s1` [Compound 46, N-ethyl-4-methyl-7-[4-(trifluoromethyl)phenyl]-9-thia-4,5,7-triazatricyclo[6.3.0.0^2,6]undeca-1(8),2,5,10-tetraene-10-carboxamide], the IC50 was 1 to 10 nM in the assay with YAP-TEAD interaction (group symbols), 1 to 100 nM in the assay on NCI-H226 cells and over 3 µM in the assay on SW620 Yap KO cells (setting [2]).
On to `CNC(=O)c1cc2c3cn(C)nc3n(-c3ccc(C(F)(F)F)cn3)c2s1` [Compound 47, N,4-dimethyl-7-[5-(trifluoromethyl)pyridin-2-yl]-9-thia-4,5,7-triazatricyclo[6.3.0.0^2,6]undeca-1(8),2,5,10-tetraene-10-carboxamide], for which the IC50 with YAP-TEAD interaction (group symbols) lay in the range of 10 to 100 nM; in the assay on NCI-H226 cells, 1 to 100 nM; with SW620 Yap KO cells (group symbols) it was 1 to 10 µM.
`C[C@H](CO)NC(=O)c1cc2c3cn(C)nc3n(-c3ccc(C(F)(F)F)cn3)c2s1` [Compound 48, N-[(2R)-1-hydroxypropan-2-yl]-4-methyl-7-[5-(trifluoromethyl)pyridin-2-yl]-9-thia-4,5,7-triazatricyclo[6.3.0.0^2,6]undeca-1(8),2,5,10-tetraene-10-carboxamide]: the IC50 was over 30000 nM in the assay with YAP-TEAD interaction (setting [1]), 1 to 100 nM in the assay with NCI-H226 cells and 10 to 30 µM in the assay with SW620 Yap KO cells (group symbols).
For the compound `CNC(=O)c1cc2c3cn(C)nc3n(-c3ccc(OC(F)(F)F)cc3)c2s1` [Compound 49, N,4-dimethyl-7-[4-(trifluoromethoxy)phenyl]-9-thia-4,5,7-triazatricyclo[6.3.0.0^2,6]undeca-1(8),2,5,10-tetraene-10-carboxamide], the IC50 in the assay with YAP-TEAD interaction (group symbols) is 10 to 100 nM; in the assay with NCI-H226 cells, 1 to 100 nM; in the assay with SW620 Yap KO cells (setting [2]), over 3 µM.
In the case of `C[C@H](CO)NC(=O)c1cc2c3cn(C)nc3n(-c3ccc(OC(F)(F)F)cc3)c2s1` [Compound 50, N-[(2R)-1-hydroxypropan-2-yl]-4-methyl-7-[4-(trifluoromethoxy)phenyl]-9-thia-4,5,7-triazatricyclo[6.3.0.0^2,6]undeca-1(8),2,5,10-tetraene-10-carboxamide], the values for the IC50 with YAP-TEAD interaction (group symbols), in the assay with NCI-H226 cells and in the assay with SW620 Yap KO cells (setting [2]) were 100 to 10000 nM, 1 to 100 nM and over 30 µM, respectively.
With `Cn1cc2c3cc(C(=O)O)sc3n([C@H]3CC[C@H](C(F)(F)F)CC3)c2n1` [Compound 52, 4-methyl-7-[(1r,4r)-4-(trifluoromethyl)cyclohexyl]-9-thia-4,5,7-triazatricyclo[6.3.0.0^2,6]undeca-1(8),2,5,10-tetraene-10-carboxylic acid], the IC50 in the assay with YAP-TEAD interaction (group symbols) is 10 to 100 nM; in the assay on NCI-H226 cells, 1 to 100 nM; in the assay on SW620 Yap KO cells (setting [2]), over 30 µM.
With `Cn1cc2c3cc(C(=O)NCCO)sc3n(-c3ccc(C(F)(F)F)cc3)c2n1` [Compound 64, N-(2-hydroxyethyl)-4-methyl-7-[4-(trifluoromethyl)phenyl]-9-thia-4,5,7-triazatricyclo[6.3.0.0^2,6]undeca-1(8),2,5,10-tetraene-10-carboxamide], the IC50 was over 950 nM with YAP-TEAD interaction (setting [1]), 1 to 100 nM with NCI-H226 cells and over 3 µM with SW620 Yap KO cells (setting [2]).
